Source: ChEMBL document CHEMBL1201862, “PubChem BioAssay data set” (2004)
Calls of active or inactive are those of the source.

How the values were obtained:
[1] = molecular target: Albumin (Bos taurus, UniProt P02769); test: Counterscreen for inhibitors of T-cell receptor (TCR)-CD3 interaction: Fluorescence-based biochemical high throughput dose response assay to identify inhibitors of T-cell receptor (TCR)-CD3 interaction using a TAMRA-labeled BSA probe.; assay type: functional
[2] = test system: Streptococcus; test: GAS UMAA2166 growth inhibition – luminescence, BacTiterGlo, counter-screen for streptokinase expression inhibitor project, dose response (AID 1915); assay type: functional, organism-based;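 note: potency for reduction of bacterial viability or growth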
[3] = test system: H4; test: Luminescence Cell-Based Dose Response HTS to Identify Activators of 5'UTR Stem-Loop Driven Prion Protein mRNA Translation in H4 Neuroglioblastoma Cells. [Related pubchem assays: 1829 (Project Summary), 1814 (Primary HTS)]; assay type: functional; settings: Homo sapiens
[4] = Luminescence Cell-Based Dose Confirmation HTS to Identify Activators of 5'UTR Stem-Loop Driven Alpha-Synuclein mRNA Translation in H4 Neuroglioblastoma Cells. [Related pubchem assays: 1829 (Project Summary), 1814 (Primary HTS)]; assay type: functional
[5] = Potency on glucagon-like peptide 1 release, dose-response in NCI-H716 cell line, half maximal inhibitory concentration (AID 1117344); assay type: functional, cell-based
[6] = NIH3T3 cell viability loss – ATP luminescence, mouse fibroblasts, counter-screen, dose response (AID 2010); assay type: functional, cell-based;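 note: cells exposed to compound for about 90 hours before reading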
[7] = Luminescence Cell-Based Dose Response HTS to Identify Activators of Luciferase Translation or Activity in H4 […] Cells. [Related pubchem assays: 1829 (Project Summary), 1814 (Primary HTS)]; assay type: functional
[8] = microbe, parasite or virus in culture; assay type: functional; settings: Mycobacterium tuberculosis
[9] = glucagon-like peptide-1 release potency in STC-1, concentration-response, half-maximal inhibitory concentration in the STC-1 line (AID 1117345); assay type: functional, cell-based
[10] = test system: Streptococcus sp. 'group A'; test: Streptococcus pyogenes SK(-)GAS viability under kanamycin – luminescence, BacTiterGlo, confirmation, counter-screen for streptokinase expression inhibitor project, dose response (AID 1900); assay type: functional, organism-based
[11] = Trypanosoma cruzi growth suppression in host cells – NIH3T3 host cells, beta-gal luminescence, confirmation (AID 2044); assay type: functional, cell-based;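 note: intracellular parasites grown in NIH/3T3 mouse fibroblasts as host cells; luminescent beta-galactosidase reporter signal from transgenic T. cruzi replicating inside host cells; inhibitors lower the luminescence signal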
[12] = molecular target: T1, Streptokinase A (Streptococcus pyogenes serotype M1, UniProt P10520); test: viability-normalized secreted streptokinase activity reduction – plasminogen activation absorbance, OD405, dose response (AID 1914); assay type: functional, Streptococcus pyogenes M1 GAS;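 note: secreted streptokinase activity via plasminogen activation per viability signal from cell pellet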
T1 sequence (P10520 whole entry): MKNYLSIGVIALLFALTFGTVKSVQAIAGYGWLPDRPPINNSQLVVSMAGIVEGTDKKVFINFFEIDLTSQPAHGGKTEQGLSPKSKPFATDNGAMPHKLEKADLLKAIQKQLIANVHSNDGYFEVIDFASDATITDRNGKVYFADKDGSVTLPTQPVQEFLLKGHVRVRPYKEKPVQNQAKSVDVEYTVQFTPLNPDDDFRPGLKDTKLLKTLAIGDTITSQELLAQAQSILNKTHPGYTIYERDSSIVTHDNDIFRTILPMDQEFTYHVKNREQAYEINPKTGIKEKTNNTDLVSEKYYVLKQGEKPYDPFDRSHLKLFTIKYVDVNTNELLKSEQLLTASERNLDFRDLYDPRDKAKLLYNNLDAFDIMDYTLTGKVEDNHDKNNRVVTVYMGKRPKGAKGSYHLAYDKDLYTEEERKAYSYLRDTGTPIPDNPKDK

[13] = molecular target: NAD-dependent protein deacylase sirtuin-5, mitochondrial (Homo sapiens, UniProt Q9NXA8); test: sirtuin-5 deacylation blockers, concentration series – biochemical, fluorescence imaging, cherry-pick, set 5, dose response (AID 720591);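 note: desuccinylation of succinyl peptide AMC substrate read as fluorescence after trypsin release; potency of inhibitors that lower fluorescence and may act on trypsin instead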
NAD-dependent protein deacylase sirtuin-5, mitochondrial, sequence (Q9NXA8 whole entry): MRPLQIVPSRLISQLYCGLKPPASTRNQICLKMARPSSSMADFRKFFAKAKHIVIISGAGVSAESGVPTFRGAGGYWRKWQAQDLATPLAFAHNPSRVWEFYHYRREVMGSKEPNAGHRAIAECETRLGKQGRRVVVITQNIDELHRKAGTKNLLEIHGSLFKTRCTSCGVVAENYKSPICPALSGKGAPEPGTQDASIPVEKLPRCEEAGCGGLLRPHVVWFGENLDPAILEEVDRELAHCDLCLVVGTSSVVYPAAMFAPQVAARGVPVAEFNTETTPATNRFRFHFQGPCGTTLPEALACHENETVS

[14] = toxicity toward HepG2 liver cells – cell-based, plate reader, cherry-pick, antagonist series, cytotoxicity control, dose response (AID 743416); assay type: functional
[15] = blockade of melanocortin 4 receptor signaling – cell-based, plate reader, cherry pick, counter-screen for LGR2 antagonist project, dose response (AID 743444); assay type: functional;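 note: transfected HEK 293 cells stimulated with alpha-MSH peptide; potency of inhibitors of the alpha-MSH evoked signal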
[16] = blockers of bursicon-stimulated LGR2 cAMP reporter – cell-based, HEK293, CRE-luciferase reporter, cherry pick, set 2, dose response (AID 743343); assay type: functional;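 note: transfected cells were stimulated with diluted bursicon conditioned medium after compound addition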
[17] = A549 cell cytotoxicity, dose response, cytotoxicity control, plate reader, cherry-pick, antagonist series (AID 743412); assay type: functional, cell-based
[18] = molecular target: T2, Protein RecA (Mycobacterium tuberculosis, UniProt P9WHJ3); test: Fluorescence Cell-Free Homogeneous Dose Retest to Identify Inhibitors of RecA-Intein Splicing Activity. [Related pubchem assays (depositor defined):AID2097, AID2223, AID489010, AID492950]; assay type: functional
T2 sequence (P9WHJ3 whole entry): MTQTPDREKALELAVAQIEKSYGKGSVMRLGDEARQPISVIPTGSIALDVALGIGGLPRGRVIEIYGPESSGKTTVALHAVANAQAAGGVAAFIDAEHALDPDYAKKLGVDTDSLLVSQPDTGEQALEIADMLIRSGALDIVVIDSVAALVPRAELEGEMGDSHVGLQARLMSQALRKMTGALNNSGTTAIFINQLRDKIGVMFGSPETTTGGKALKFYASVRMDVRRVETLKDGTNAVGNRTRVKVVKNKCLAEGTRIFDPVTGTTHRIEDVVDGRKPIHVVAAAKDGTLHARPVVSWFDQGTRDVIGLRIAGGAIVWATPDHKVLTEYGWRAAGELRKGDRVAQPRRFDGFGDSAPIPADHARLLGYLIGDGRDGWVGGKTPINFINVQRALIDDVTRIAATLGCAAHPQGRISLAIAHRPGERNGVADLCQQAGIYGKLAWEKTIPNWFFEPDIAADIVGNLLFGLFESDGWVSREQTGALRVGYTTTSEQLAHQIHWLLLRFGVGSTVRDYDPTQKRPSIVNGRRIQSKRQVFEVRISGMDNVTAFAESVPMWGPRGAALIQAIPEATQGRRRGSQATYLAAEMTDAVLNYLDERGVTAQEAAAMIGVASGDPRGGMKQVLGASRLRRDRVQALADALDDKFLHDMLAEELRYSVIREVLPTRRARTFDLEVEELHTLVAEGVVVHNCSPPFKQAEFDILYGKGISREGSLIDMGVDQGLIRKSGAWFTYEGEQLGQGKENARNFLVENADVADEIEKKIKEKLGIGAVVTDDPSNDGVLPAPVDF

[19] = molecular target: Disintegrin and metalloproteinase domain-containing protein 17 (Homo sapiens, UniProt P78536); test: exosite inhibitors of ADAM17, dose response, biochemical (AID 743260)
Disintegrin and metalloproteinase domain-containing protein 17, sequence (P78536 whole entry, the tested form may be a part): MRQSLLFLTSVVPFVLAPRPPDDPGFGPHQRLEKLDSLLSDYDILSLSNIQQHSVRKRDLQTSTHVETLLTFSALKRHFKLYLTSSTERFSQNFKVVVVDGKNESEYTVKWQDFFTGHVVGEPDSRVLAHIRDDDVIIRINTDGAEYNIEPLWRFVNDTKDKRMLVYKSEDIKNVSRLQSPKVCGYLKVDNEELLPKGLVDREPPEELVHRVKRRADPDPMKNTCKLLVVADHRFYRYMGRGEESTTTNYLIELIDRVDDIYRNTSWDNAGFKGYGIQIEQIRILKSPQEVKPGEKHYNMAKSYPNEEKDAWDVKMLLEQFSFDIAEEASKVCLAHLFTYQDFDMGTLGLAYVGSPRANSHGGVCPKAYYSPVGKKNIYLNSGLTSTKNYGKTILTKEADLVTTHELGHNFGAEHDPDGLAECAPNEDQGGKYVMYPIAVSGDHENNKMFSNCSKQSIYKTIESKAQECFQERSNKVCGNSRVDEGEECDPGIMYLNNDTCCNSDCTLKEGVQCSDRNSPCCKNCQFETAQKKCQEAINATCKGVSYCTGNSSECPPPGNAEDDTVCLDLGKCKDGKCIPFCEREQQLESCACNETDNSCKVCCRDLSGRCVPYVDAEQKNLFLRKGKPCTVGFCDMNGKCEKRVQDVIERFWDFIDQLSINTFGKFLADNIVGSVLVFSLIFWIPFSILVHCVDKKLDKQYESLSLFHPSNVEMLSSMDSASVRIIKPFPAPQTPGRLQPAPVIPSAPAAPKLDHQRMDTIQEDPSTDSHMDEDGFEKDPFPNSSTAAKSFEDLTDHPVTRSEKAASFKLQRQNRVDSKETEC

[20] = molecular target: T3, Replicative DNA helicase DnaB (Mycobacterium tuberculosis, UniProt P9WMR3); test: DnaB intein splicing inhibitors, dose response, biochemical, cell-free fluorescence (AID 449749); assay type: functional
T3 sequence (P9WMR3 whole entry): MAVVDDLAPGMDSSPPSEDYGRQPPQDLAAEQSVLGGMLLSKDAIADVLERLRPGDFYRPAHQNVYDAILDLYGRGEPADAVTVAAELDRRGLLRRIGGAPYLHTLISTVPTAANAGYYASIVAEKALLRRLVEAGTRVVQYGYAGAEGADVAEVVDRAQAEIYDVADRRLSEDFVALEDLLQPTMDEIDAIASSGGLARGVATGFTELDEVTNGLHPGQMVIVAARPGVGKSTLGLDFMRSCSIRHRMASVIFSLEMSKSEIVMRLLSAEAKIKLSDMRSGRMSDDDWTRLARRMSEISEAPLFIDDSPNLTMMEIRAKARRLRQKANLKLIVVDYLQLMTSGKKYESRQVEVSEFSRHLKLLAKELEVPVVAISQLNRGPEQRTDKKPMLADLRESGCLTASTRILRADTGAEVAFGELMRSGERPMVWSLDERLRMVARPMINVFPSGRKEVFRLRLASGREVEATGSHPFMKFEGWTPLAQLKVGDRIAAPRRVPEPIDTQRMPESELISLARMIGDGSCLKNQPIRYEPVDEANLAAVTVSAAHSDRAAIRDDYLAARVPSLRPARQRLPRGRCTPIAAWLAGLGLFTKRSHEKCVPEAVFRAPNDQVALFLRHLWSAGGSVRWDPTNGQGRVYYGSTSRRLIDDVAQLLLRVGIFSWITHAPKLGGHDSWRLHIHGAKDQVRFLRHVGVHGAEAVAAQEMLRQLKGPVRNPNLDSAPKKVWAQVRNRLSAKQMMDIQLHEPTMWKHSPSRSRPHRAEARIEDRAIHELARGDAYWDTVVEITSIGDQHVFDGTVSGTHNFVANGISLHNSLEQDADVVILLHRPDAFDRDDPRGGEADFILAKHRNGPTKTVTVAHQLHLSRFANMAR

Albumin, sequence (P02769 whole entry): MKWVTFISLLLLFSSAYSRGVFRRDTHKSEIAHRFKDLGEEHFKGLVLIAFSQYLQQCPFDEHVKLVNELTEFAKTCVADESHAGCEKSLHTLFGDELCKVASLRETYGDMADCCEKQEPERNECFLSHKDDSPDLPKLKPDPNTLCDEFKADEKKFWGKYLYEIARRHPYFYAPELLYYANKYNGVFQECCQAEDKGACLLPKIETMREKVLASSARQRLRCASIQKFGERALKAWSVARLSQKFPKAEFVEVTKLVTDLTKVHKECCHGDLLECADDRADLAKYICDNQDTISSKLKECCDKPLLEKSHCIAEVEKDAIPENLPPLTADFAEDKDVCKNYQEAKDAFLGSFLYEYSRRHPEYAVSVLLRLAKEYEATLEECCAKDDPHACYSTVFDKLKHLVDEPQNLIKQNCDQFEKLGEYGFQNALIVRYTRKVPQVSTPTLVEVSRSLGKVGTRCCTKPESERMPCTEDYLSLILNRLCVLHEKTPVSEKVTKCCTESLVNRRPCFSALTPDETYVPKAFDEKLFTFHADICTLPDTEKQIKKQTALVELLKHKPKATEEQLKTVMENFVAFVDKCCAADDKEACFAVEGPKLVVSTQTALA

## O=C(CCl)NNC(=O)c1c(O)c2ccccc2[nH]c1=O
[1]
  IC50: > 94 µM (inactive)

## C#C[C@]1(O)CC[C@H]2[C@@H]3CCc4cc(OC5CCCC5)ccc4[C@H]3CC[C@@]21C [QUINESTROL]
[2]
  EC50: 4.17 µM (active)
[3]
  EC50: > 120 µM (not active)
[4]
  EC50: > 120 µM (not active)
[5]
  IC50: 17.6 µM (inactive)
[6]
  EC50: > 60 µM (not active)
[7]
  EC50: > 120 µM (not active)
[8]
  CC50: > 40 µM (active)
[9]
  IC50: > 40 µM (inactive)
[10]
  EC50: 1.94 µM (active)
[11]
  EC50: 4.43 µM (active)

## COc1ccc(CC(=O)N/N=C/c2cc([N+](=O)[O-])cc(Br)c2O)cc1
[2]
  EC50: 6.89 µM (active)
[1]
  IC50: > 94.1 µM (inactive)
[12]
  EC50: > 150 µM (not active)
[10]
  EC50: 3.53 µM (active)

## CCN(CC(=O)Nc1ccccc1C(F)(F)F)C(=O)c1ccc2c(=O)n3c(nc2c1)CCC3
[13]
  AC50: > 30 µM (inactive)

## Cc1ccc(CCN2CC(C(=O)NCCN(C)C)CC2=O)cc1 (stereo unspecified)
[13]
  AC50: > 30 µM (inactive)

## C[C@H](CO)N1C[C@H](C)[C@H](CN(C)C(=O)Nc2cccc3ccccc23)OCc2cnnn2CCCC1=O
[13]
  AC50: 2.28 µM (active)

## COc1ccc2nc(NC(=O)c3ccccc3F)sc2c1
[14]
  AC50: > 52 µM (inactive)
[15]
  AC50: 27.2 µM (active)
[16]
  AC50: 19.9 µM (active)
[17]
  AC50: > 52 µM (inactive)

## COc1cc(C(c2c(C)[nH][nH]c2=O)c2c(C)[nH][nH]c2=O)ccc1OCc1ccc([N+](=O)[O-])cc1
[18]
  EC50: 0.178 µM (active)
[19]
  IC50: > 69.5 µM (inactive)
[20]
  AC50: 0.338 µM (active)

## Cc1ccc(Cn2c(N3CCNCC3)nc3c2c(=O)[nH]c(=O)n3C)cc1
[13]
  AC50: 25.2 µM (active)
